Earlier results as cited in patent US20070191304A1, “Methods for performing percutaneous coronary intervention” (priority 2005, published 2007).

Details: bivalirudin plus GP IIb/IIIa inhibitors

## bivalirudin
  Primary endpoint of death, myocardial infarction, urgent revascularization and major bleeding, compared to UFH plus planned GP IIb/IIIa inhibitors: noninferior
